Assay [1] deals with HBV. Put plainly: Humanized mouse model of HBV infection in human-murine liver chimeric mice. Type of assay: in vivo, FRG KO mice. The arrangement: unit not given here. To be noted: n=6. Here is the method:
(asterisks), the group treated with illustrative compound 46 at 3 mg/kg p.o. q.d. (asterisks), the group treated with illustrative compound 46 at 30 mg/kg p.o. q.d. (filled squares), the group treated with illustrative compound 44 at 1 mg/kg p.o. q.d. (crosses), and the group treated with illustrative compound 44 at 10 mg/kg p.o. q.d. (filled circles).
Six to ten weeks old male or female FRG KO mice (Fah-/-/Rag2-/-/Il2rg-/-triple knock-out - Yecuris Corporation P.O. Box 4645, Tualatin, OR 97062, USA) are used. They are provided with filtered tap water and standard chow ad libitum and maintained at 22 ± 2°C in 55 ± 10% humidity on a 12h light/dark cycle.
Each mouse is repopulated by intra splenic injection of 1 to 2 10^6 human hepatocytes (Life Technologies ref HMCS2SA). To allow a progressive and efficacious repopulation, drinking water is regularly supplemented with Nitisinone (Yecuris, lot TNAK0002). The repopulation rate is controlled by hAlb dosage in serum (Euromedex ref E88-129). About 3 to 4 months after the human hepatocyte injection, mice for which repopulation is successful reach an hAlb level >1g/L and can be used for HBV infection.
The test compounds for p.o administration are formulated in Solutol at 2% (Sigma : Kolliphor hS15 12966-1kg lot BCBM0868V) and methylcellulose 0.5% at 98%
Each mouse is injected with HBV-2015 batch ([…]) with an inoculum of 1.38 10^8 GE HBV (0.2 mL) via tail vein.
Six to seven weeks after infection, blood is sampled under isoflurane anesthesia by retro-orbital puncture. HBsAg is dosed in serum by Elisa assay (Immunodiagnostic, ref HBSAG EIA). HBV DNA level is measured in the mice serum using qPCR (SYBR green). Only mice reaching HBsAg level above 1000UI/mL are kept and randomized.
Treatment is given for 5 weeks according to body weight.
Body weight is recorded every week.
Between Day 7 and Day 11, a steady state PK is performed with sampling of blood under isoflurane anesthesia by retro-orbital puncture at T=0, 1h, 3h, 6h post treatment. Plasma are frozen before decontamination with ethanol absolute 80% and transfer to bioanalysis laboratory for compound dosage by LCMS-MS.
At […], D8, D15, D22 and D28, blood is sampled under isoflurane anesthesia by retro-orbital puncture. To follow compounds efficacy, HBsAg is dosed in serum by Elisa assay (Immunodiagnostic, ref HBSAG EIA) and HBV DNA level is measured in serum using qPCR (SYBR green).
After 5 weeks of treatment, mice are euthanized 2 hours after the last dosing for liver and blood collection.
In blood HBsAg is measured by Elisa assay, HBV DNA by qPCR and compound level by LCMS-MS.
In liver HBV DNA is measured by qPCR, compound level by LCMS-MS, pgRNA by RT-qPCR, HBcAg by immunohistochemistry (Dako ref B0586).
When subjected to this protocol, the following results for illustrative compounds of the invention are obtained. Table VII. Infected mice HBsAg blood level variation

In assay [2] the test system is HBV. The assay is described as above. Type of assay: in vivo, FRG KO mice. The arrangement: unit not given here. To be noted: D1, mean, n=6.

SMILES strings stand for the structures.

In the case of `COCCCOc1cc2c(cc1F)-c1c(cc(C(=O)O)c(=O)n1C1CC1)[C@H](C(C)C)O2` [Compound 44, (5S)-1-cyclopropyl-9-fluoro-5-isopropyl-8-(3-methoxypropoxy)-2-oxo-5H-chromeno[4,3-b]pyridine-3-carboxylic acid], the “Infected mice HBsAg blood level” value in the assay on HBV [1] (1 mg/kg p.o q.d, D1, mean) is on record as 4.5; in the assay on HBV [1] (1 mg/kg p.o q.d, D8, mean), 3.6; with HBV [1] (1 mg/kg p.o q.d, D15, mean), 3.5; in the assay on HBV [1] (1 mg/kg p.o q.d, D22, mean), 3.5; in the assay with HBV [1] (1 mg/kg p.o q.d, D28, mean), 3.6; with HBV [1] (10 mg/kg p.o q.d, D1, mean), 4.4. Besides, the “Infected mice HBsAg blood level” value worked out at 3.4 in the assay with HBV [1] (10 mg/kg p.o q.d, D8, mean); 3.5 in the assay with HBV [1] (10 mg/kg p.o q.d, D15, mean); 3.4 with HBV [1] (10 mg/kg p.o q.d, D22, mean); 3.4 in the assay on HBV [1] (10 mg/kg p.o q.d, D28, mean).
Turning to `COCCCOc1cc2c(cc1Cl)-c1c(cc(C(=O)O)c(=O)n1C1CC1)[C@H](C1(C)COC1)O2` [Compound 46, (5R)-9-chloro-1-cyclopropyl-8-(3-methoxypropoxy)-5-(3-methyloxetan-3-yl)-2-oxo-5H-chromeno[4,3-b]pyridine-3-carboxylic acid], the “Infected mice HBsAg blood level” value turned out to be 4.4 with HBV [2] (0.3 mg/kg p.o q.d); 4.4 in the assay with HBV [2] (3 mg/kg p.o q.d); 3.7 in the assay with HBV [1] (0.3 mg/kg p.o q.d, D8, mean); 3.8 in the assay with HBV [1] (0.3 mg/kg p.o q.d, D15, mean); 3.9 in the assay with HBV [1] (0.3 mg/kg p.o q.d, D22, mean); 3.7 in the assay on HBV [1] (0.3 mg/kg p.o q.d, D28, mean). Besides, the “Infected mice HBsAg blood level” value with HBV [1] (3 mg/kg p.o q.d, D8, mean) came to 3.4; with HBV [1] (3 mg/kg p.o q.d, D15, mean) it was 3.4; in the assay on HBV [1] (3 mg/kg p.o q.d, D22, mean), 3.4; in the assay with HBV [1] (3 mg/kg p.o q.d, D28, mean), 3.4; with HBV [1] (30 mg/kg p.o q.d, D1, mean) it was 4.4; in the assay with HBV [1] (30 mg/kg p.o q.d, D8, mean) it was 3.5. The “Infected mice HBsAg blood level” value in the assay on HBV [1] (30 mg/kg p.o q.d, D15, mean) is given as 3.5; with HBV [1] (30 mg/kg p.o q.d, D22, mean), 3.4; in the assay with HBV [1] (30 mg/kg p.o q.d, D28, mean), 3.5.
